Experimental data published in ChEMBL document CHEMBL2390940, “Synthesis and receptor binding studies of novel 4,4-disubstituted arylalkyl/arylalkylsulfonyl piperazine and piperidine-based derivatives as a new class of σ1 ligands” (Eur J Med Chem, 2013).

Columns and labels:
[1] = Displacement of [3H]DTG from sigma2 receptor in Sprague-Dawley rat liver membrane after 150 mins by liquid scintillation counting analysis; assay type: cell membranes
[2] = target: Sigma non-opioid intracellular receptor 1 (Cavia porcellus, UniProt Q60492)
[3] = Binding affinity to sigma receptor (unknown origin); design: species or system Homo sapiens

Sigma non-opioid intracellular receptor 1, sequence (Q60492 whole entry): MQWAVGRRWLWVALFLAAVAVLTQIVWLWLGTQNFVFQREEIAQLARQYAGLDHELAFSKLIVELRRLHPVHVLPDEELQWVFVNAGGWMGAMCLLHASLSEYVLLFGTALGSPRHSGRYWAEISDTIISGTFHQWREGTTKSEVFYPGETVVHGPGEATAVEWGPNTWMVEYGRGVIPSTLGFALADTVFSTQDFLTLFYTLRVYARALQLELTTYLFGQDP

## O=S(=O)(c1ccccc1)N1CCN(Cc2ccccc2)CC1
[1]
  Ki: 87.1 nM
[2]
  Ki: 28.4 nM

## O=S(=O)(CCc1ccccc1)N1CCN(Cc2ccccc2)CC1
[1]
  Ki: 191 nM
[2]
  Ki: 78.4 nM

## Cc1ccccc1NC(=N)Nc1ccccc1C [DITOLYLGUANIDINE]
[1]
  Ki: 58.4 nM

## Cc1cccc(CS(=O)(=O)N2CCN(Cc3ccccc3)CC2)c1
[1]
  Ki: 89.4 nM
[2]
  Ki: 35.9 nM

## O=S(=O)(Cc1cccc(I)c1)N1CCC(Cc2ccccc2)CC1
[1]
  Ki: 91.8 nM
[2]
  Ki: 0.96 nM

## O=S(=O)(c1ccc(Cl)cc1)N1CCN(Cc2ccccc2)CC1
[1]
  Ki: 1550 nM
[2]
  Ki: 969 nM

## CC(C)=CCN1CC[C@]2(C)c3cc(O)ccc3C[C@H]1[C@H]2C [(+)-PENTAZOCINE]
[1]
  Ki: 1870 nM

## O=S(=O)(c1ccc(Cl)cc1)N1CCC(Cc2ccccc2)CC1
[1]
  Ki: 778 nM
[2]
  Ki: 551 nM

## O=S(=O)(/C=C/c1ccc(Br)cc1)N1CCN(Cc2ccccc2)CC1
[1]
  Ki: 485 nM
[2]
  Ki: 1080 nM

## O=S(=O)(Cc1cccc(Cl)c1)N1CCN(Cc2ccccc2)CC1
[1]
  Ki: 134 nM
[2]
  Ki: 68.1 nM

## O=S(=O)(Cc1cccc(I)c1)N1CCN(Cc2ccccc2)CC1
[1]
  Ki: 88.8 nM
[2]
  Ki: 2.7 nM

## O=S(=O)(/C=C/c1ccccc1)N1CCN(Cc2ccccc2)CC1
[1]
  Ki: 8140 nM
[2]
  Ki: 201 nM

## Cc1cccc(CS(=O)(=O)N2CCC(Cc3ccccc3)CC2)c1
[1]
  Ki: 48.9 nM
[2]
  Ki: 4.7 nM

## O=C(CCCN1CCC(O)(c2ccc(Cl)cc2)CC1)c1ccc(F)cc1 [HALOPERIDOL]
[1]
  Ki: 43.5 nM

## O=S(=O)(c1ccccc1)N1CCC(Cc2ccccc2)CC1
[1]
  Ki: 56.7 nM
[2]
  Ki: 24.3 nM

## O=S(=O)(Cc1cccc(Cl)c1)N1CCC(Cc2ccccc2)CC1
[1]
  Ki: 199 nM
[2]
  Ki: 40 nM

## O=S(=O)(/C=C/c1ccccc1)N1CCC(Cc2ccccc2)CC1
[1]
  Ki: 1960 nM
[2]
  Ki: 138 nM

## O=S(=O)(Cc1ccccc1)N1CCC(Cc2ccccc2)CC1
[1]
  Ki: 38.9 nM
[2]
  Ki: 9.9 nM

## Clc1ccc(/C=C/CN2CCN(Cc3ccccc3)CC2)cc1
[3]
  Ki: 0.3 nM

## O=S(=O)(Cc1ccccc1)N1CCN(Cc2cccc(F)c2)CC1
[1]
  Ki: 181 nM
[2]
  Ki: 68.7 nM

## O=S(=O)(Cc1ccccc1)N1CCN(Cc2ccccc2)CC1
[1]
  Ki: 48.4 nM
[2]
  Ki: 11.2 nM

## c1ccc(CCCN2CCN(Cc3ccccc3)CC2)cc1
[2]
  Ki: 20 nM

## O=S(=O)(Cc1cccc(Br)c1)N1CCC(Cc2ccccc2)CC1
[1]
  Ki: 25.9 nM
[2]
  Ki: 1.6 nM

## c1ccc(CCCN2CCC(Cc3ccccc3)CC2)cc1
[1]
  Ki: 3.3 nM
[2]
  Ki: 0.4 nM

## O=S(=O)(CCc1ccccc1)N1CCC(Cc2ccccc2)CC1
[1]
  Ki: 187 nM

## Cc1cccc(CN2CCN(S(=O)(=O)Cc3ccccc3)CC2)c1
[1]
  Ki: 151 nM
[2]
  Ki: 15 nM

## OC[C@@H]1CN(CCc2ccccc2)CCN1Cc1ccccc1
[1]
  Ki: 177 nM
[2]
  Ki: 38 nM

## O=S(=O)(Cc1ccccc1)N1CCN(Cc2ccc(Br)cc2)CC1
[1]
  Ki: 288 nM
[2]
  Ki: 13.4 nM

## O=S(=O)(/C=C/c1ccc(Br)cc1)N1CCC(Cc2ccccc2)CC1
[1]
  Ki: 248 nM
[2]
  Ki: 843 nM

## c1ccc(CN2CCN(Cc3ccccc3)CC2)cc1
[1]
  Ki: 1270 nM

## COc1ccc(CN2CCN(S(=O)(=O)Cc3ccccc3)CC2)cc1
[1]
  Ki: 2130 nM
[2]
  Ki: 192 nM

## O=S(=O)(Cc1ccccc1)N1CCN(Cc2cccc(I)c2)CC1
[1]
  Ki: 117 nM
[2]
  Ki: 1.8 nM

## O=S(=O)(Cc1ccccc1)N1CCN(Cc2cccc(Cl)c2)CC1
[1]
  Ki: 174 nM
[2]
  Ki: 51.8 nM

## O=S(=O)(Cc1cccc(Br)c1)N1CCN(Cc2ccccc2)CC1
[1]
  Ki: 148 nM
[2]
  Ki: 29.9 nM
